Patent EP2198709A1, “Method for treating resistant animal pests” (Bayer CropScience AG, priority 2008, dated 2010)

How the values were obtained:
Format in all cases: in vivo
[1] = system: Nymphen von Bemisia argentifolii; assay: Field trial on melon plants, spray, against nymphs of neonicotinoid-resistant silverleaf whiteflies (Arizona); details: 150 g ai/ha/m CH, SL 100, Imidacloprid SC 192
From the text: (§1) In Arizona (USA) wurden Melonenpflanzen, die stark mit Nymphen von bekanntermaßen Neonikotinoyl-resistenten Silberflügeligen Weißen Fliegen (Bemisia argentifolii) infiziert waren, jeweils zwei Mal im Abstand von 15 Tagen mit der Verbindung 1-5 (SL 100, 150 g ai/ha/m CH (g aktive Substanz/ha/m CH, CH = Laubwand-Höhe) bzw. mit Imidacloprid (SC 192, 150 g ai/ha/m CH) besprüht. Zu verschiedenen Zeitpunkten nach der ersten bzw. zweiten Behandlung (DAA = Tage nach 1. Behandlung, DAB = Tage nach zweiter Behandlung) wurde die Wirksamkeit (in % Abbott: Verhältnis der Anzahl Nymphen auf behandelter Pflanze / Fläche zur Anzahl Nymphen auf Kontrolle) der beiden Substanzen gegen Nymphen von Bemisia argentifolii bestimmt.

Bemisia tabaci SUD-S = assay: Leaf-dip bioassay, adult whiteflies, insecticide-susceptible strain SUD-S; details: adults, mortality after 72 h
From the text: Es wurden Versuche durchgeführt, um die überlegene Blattwirkung von Enaminocarbonylverbindungen gegen adulte Tiere eines Stamms von Bemisia tabaci zu zeigen, der bekanntermaßen resistent ist gegen Neonikotinoid-Insektizide sowie andere Insektizidklassen, einschließlich Insekten-Wachstumsregulatoren (wie Buprofezin) und Antifeedants (Substanzen, die einen Schaderreger vom Fraß abhalten) (wie Pymetrozin).
Baumwollblattscheiben (30 mm im Durchmesser) wurden für 5 sec in wässrige Lösungen technischer Insektizide, enthaltend 0,2 g/l Triton-X-100 als nicht-ionisches Benetzungsmittel, getaucht. Luftgetrocknete Blattscheiben wurden dann mit der adaxialen Seite nach unten auf ein Agarbett (12 g/l) in einer kleinen Petrischale (40 mm im Durchmesser) gelegt. Adulte Weiße Fliegen wurden mittels eines Vakuum-getriebenen Aspirators aus Aufzuchtkäfigen eingesammelt und 20 adulte Tiere wurden nach kurzer CO2-Narkose auf die Blattscheiben gelegt. Anschließend wurde jede Petrischale mit einem belüfteten Deckel verschlossen und umgedreht aufbewahrt. Nach 72 h wurde die Mortalität der Weißen Fliegen bestimmt. Jedes Insektizid wurde mindestens dreifach mit 2-oder 3-fach Bestimmungen pro Konzentration getestet.
LC50-Werte wurden aus Probit-Regressionen unter Verwendung des Computerprogramms POLO-PC 2 (LeOra Software, Berkeley, USA) berechnet.
Tabelle 1. Log-Dosis Probit Mortalitätsdaten für verschiedene Klassen von Insektiziden erhalten aus Blatt-Tauch-Bioassays gegen adulte Tiere zweier Bemisia tabaci Stämme, SUD-S und ESP-00, die bekanntermaßen Insektizid-empfindlich (SUD-S) bzw. multiresistent (ESP-00) sind (Stumpf und Nauen, 2003). Mortalität wurde nach 72 h bestimmt, mit Ausnahme von Buprofezin (10-12 d).

[2] = system: Eier von Bemisia argentifolii; assay: Field trial on melon plants, spray, against eggs of neonicotinoid-resistant silverleaf whiteflies (Arizona); details: 150 g ai/ha/m CH, I-5 SL 100, Imidacloprid SC 192
From the text: as §1, with “mit Eiern” for “mit Nymphen”, “Verbindung I-5” for “Verbindung 1-5”, “Anzahl Eier” for “Anzahl Nymphen”, “gegen Eier” for “gegen Nymphen”

[3] = 7 DAB (days after 2nd treatment), sprayed 2x
[4] = 8 DAA (days after 1st treatment), sprayed

SMILES: O=[N+]([O-])NC1=NCCN1Cc1ccc(Cl)nc1 [Imidacloprid]
- Effizienz ([1]; 7 DAB, sprayed 2x): 36,1 % Abbott
- Effizienz ([1]; 8 DAA, sprayed): 53,1 % Abbott
- Effizienz ([1]; 13 DAB, sprayed 2x): 31,9 % Abbott
- Effizienz ([1]; 14 DAA, sprayed): 47,6 % Abbott
- SUD-S LC50 (Bemisia tabaci SUD-S): 0.82 ppm
- Effizienz [2, 3]: 30,2 % Abbott
- Effizienz [2, 4]: 66,1 % Abbott
- Effizienz ([2]; 13 DAB, sprayed 2x): 0 % Abbott
- Effizienz ([2]; 14 DAA, sprayed): 69,5 % Abbott

SMILES: O=C1C=C(N(Cc2ccc(Cl)nc2)CC(F)F)CO1 [Verbindung I-5, 4-{[(6-Chlorpyrid-3-yl)methyl](2,2-difluorethyl)amino}furan-2(5H)-on]
- Effizienz ([1]; 7 DAB, sprayed 2x): 55,4 % Abbott
- Effizienz ([1]; 8 DAA, sprayed): 86,8 % Abbott
- Effizienz ([1]; 13 DAB, sprayed 2x): 80,9 % Abbott
- Effizienz ([1]; 14 DAA, sprayed): 84,6 % Abbott
- SUD-S LC50 (Bemisia tabaci SUD-S): 6.7 ppm
- Effizienz [2, 3]: 81,6 % Abbott
- Effizienz [2, 4]: 97,6 % Abbott
- Effizienz ([2]; 13 DAB, sprayed 2x): 69 % Abbott
- Effizienz ([2]; 14 DAA, sprayed): 72,9 % Abbott
